Measurements reported in US20240293443A1, “HEPARAN SULFATE MIMETICS TO IMPROVE GLUCOSE CLEARANCE” (The Regents of the University of California, priority 2021, published 2024).
Entries after “also recorded” stand apart in the source; their conditions may differ.

Experiments:
WT adipocytes [1] = assay: 3[H]-2-deoxy-glucose uptake in WT MEF-derived adipocytes; format: cell-based, mouse; conditions: for glucose clearance in differentiated adipocytes: WT, Wnt inhibitor treatment during the first 3 days of adipogenesis
Procedure: Cells were seeded on a 24-well plate at a density of 30,000 cells/cm^2. Cells were allowed to grow to confluence for 48 hours. At this point (Day 0), the media were removed, cells were washed with PBS, and differentiation media with or without heparin (100 μg/ml) were added. […] On Day 3 of differentiation, cells were washed with PBS and treated with insulin media, which consisted of 2 μM insulin, and 1 μM rosiglitazone in DMEM with 10% FBS. The cellular cholesterol and triglyceride content was determined after lysing cells in 0.1M NaOH. Total plasma cholesterol and plasma triglyceride levels (Sekisui Diagnostics) and protein levels (BCA protein assay) were determined using commercially available kits.
Cells are washed twice with PBS and placed into DMEM with 2 mg/mL BSA for two hours. […] The insulin solution is then removed and the cells are washed twice with transport solution before radioactive transport solution is added, which consists of 0.25 μCi/well of 3[H]-2-deoxy-glucose and 0.025 mM 2-deoxy-glucose. After a 10-minute incubation in the radioactive transport solution, it is removed and the, the glucose uptake is halted by addition of ice cold PBS. The cold PBS is removed and each well is washed twice with PBS. Then, lysis buffer consisting of 0.1 M NaOH and 0.1% w/v sodium dodecyl sulfate, is added to each well. The radioactive lysate was transferred to a scintillation vial containing 5 mL of Ultima Gold liquid scintillation fluid and analyzed using a liquid Scintillation counter.
Cells were differentiated for 6 days using the standard adipogenic differentiation protocol described above. Each day on Days 0-3, the cells were washed with PBS and incubated with 200 μL solution of DMEM containing GPs at the indicated concentrations added for 1 hour at 37° C. After this time, the media were removed, the cells were washed with PBS, and fresh differentiation media were added. On Day 6, the adipocytes were subjected to the ^3[H]-2-deoxy-glucose uptake assay and the spent media were analyzed for glucose and lactate content as described above.

Ndst1−/− adipocytes = assay: 3[H]-2-deoxy-glucose uptake in Ndst1−/− MEF-derived adipocytes; format: cell-based, mouse; conditions: for glucose clearance in differentiated adipocytes: Ndst1−/−, Wnt inhibitor treatment during the first 3 days of adipogenesis
Procedure: Cells were seeded on a 24-well plate at a density of 30,000 cells/cm^2. Cells were allowed to grow to confluence for 48 hours. At this point (Day 0), the media were removed, cells were washed with PBS, and differentiation media with or without heparin (100 μg/ml) were added. […] On Day 3 of differentiation, cells were washed with PBS and treated with insulin media, which consisted of 2 μM insulin, and 1 μM rosiglitazone in DMEM with 10% FBS. The cellular cholesterol and triglyceride content was determined after lysing cells in 0.1M NaOH. Total plasma cholesterol and plasma triglyceride levels (Sekisui Diagnostics) and protein levels (BCA protein assay) were determined using commercially available kits. Cells are washed twice with PBS and placed into DMEM with 2 mg/mL BSA for two hours. […] The insulin solution is then removed and the cells are washed twice with transport solution before radioactive transport solution is added, which consists of 0.25 μCi/well of 3[H]-2-deoxy-glucose and 0.025 mM 2-deoxy-glucose. After a 10-minute incubation in the radioactive transport solution, it is removed and the, the glucose uptake is halted by addition of ice cold PBS. The cold PBS is removed and each well is washed twice with PBS. Then, lysis buffer consisting of 0.1 M NaOH and 0.1% w/v sodium dodecyl sulfate, is added to each well. The radioactive lysate was transferred to a scintillation vial containing 5 mL of Ultima Gold liquid scintillation fluid and analyzed using a liquid Scintillation counter. Cells were differentiated for 6 days using the standard adipogenic differentiation protocol described above. Each day on Days 0-3, the cells were washed with PBS and incubated with 200 μL solution of DMEM containing GPs at the indicated concentrations added for 1 hour at 37° C. After this time, the media were removed, the cells were washed with PBS, and fresh differentiation media were added. On Day 6, the adipocytes were subjected to the ^3[H]-2-deoxy-glucose uptake assay and the spent media were analyzed for glucose and lactate content as described above.

Wnt10b = Wnt10b (Homo sapiens, UniProt O00744); assay: Wnt binding to HS-mimetics via ELISA (Wnt10b); conditions: immobilized Wnt10b, biotinylated glycopolymer or heparin
Procedure: (§1) Wnt5a and Wnt10b proteins (10 nM solution in 1% (w/v) BSA/DPBS) were immobilized on 96-well tissue culture treated plates overnight at 4° C. The plates were washed twice with 0.05% (v/v) Tween-20 in DPBS and blocked with 1% (w/v) BSA/DPBS for 6 hours at room temperature. Biotinylated HS-mimetic glycopolymers GP or heparin were added to the wells at increasing concentrations in 1% (w/v) BSA/DPBS. After 1 hour incubation, the wells were washed three times with 0.05% Tween-20 in DPBS. Streptavidin-HRP (1:1000 in 1% BSA/DPBS) was added for 45 min at ambient temperature. The wells were again washed three times in 0.05% Tween-20 in DPBS, followed by treatment with 100 μL of TMB substrate for 2-5 min before quenching with 100 μL of 2N sulfuric acid. Absorbance (450 nm) was measured using a Molecular Devices SpectraMax plate reader.

Wnt5a = target: T1, Wnt5a (Homo sapiens, UniProt P41221); assay: Wnt binding to HS-mimetics via ELISA (Wnt5a); conditions: immobilized Wnt5a, biotinylated glycopolymer or heparin
T1 sequence (P41221 62-380): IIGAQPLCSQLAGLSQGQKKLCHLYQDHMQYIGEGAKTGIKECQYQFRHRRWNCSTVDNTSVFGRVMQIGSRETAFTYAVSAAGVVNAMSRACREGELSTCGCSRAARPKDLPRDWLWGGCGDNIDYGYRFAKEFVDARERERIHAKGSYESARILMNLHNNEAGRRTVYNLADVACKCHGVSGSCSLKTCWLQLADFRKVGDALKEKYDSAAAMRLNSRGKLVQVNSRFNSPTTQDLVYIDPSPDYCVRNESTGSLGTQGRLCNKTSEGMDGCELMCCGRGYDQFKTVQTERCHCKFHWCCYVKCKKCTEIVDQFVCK
Procedure: as §1

[2] = tested on: Primary adipocytes derived from murine subcutaneous white adipose tissue (sWAT) stromal vascular cells; assay: Glucose uptake in primary adipocytes from sWAT stromal vascular cells; format: cell-based; conditions: co-incubated with heparin during adipogenesis
Procedure: Around 1 g subcutaneous WAT from 8- to 14-week-old, male or female mice was dissected, washed, minced, and digested in 1 ml DMEM containing 0.25 U/ml collagenase D (Sigma) at 37° C. with constant agitation at 200 rpm for 25-35 min. To stop the digestion, complete DMEM including 10% FBS and 1% P/S was added to the digestion mixture. Then the cells were filtered through a 100 μm cell strainer. After centrifugation at 200×g for 10 min, the floating adipocyte fraction (AF) was collected for protein isolation, while the pellet containing stromal vascular fraction (SVF) was resuspended in fresh complete medium and seeded on a 10-cm cell culture dish. At a confluency of ˜80%, cells were seeded on 6- and 12-well plates and grown to confluency for differentiation. Differentiation was induced by using complete DMEM/F12 media supplemented with 1 μM dexamethasone, 0.5 mM isobutylmethylxanthine (IBMX), 5 μg/ml insulin, and 1 μM rosiglitazone. Three days after induction, medium was changed to complete DMEM/F12 supplemented with 5 μg/ml insulin for two days, afterwards cells were maintained in complete DMEM/F12 medium. […]
Cells are washed twice with PBS and placed into DMEM with 2 mg/mL BSA for two hours. […] The radioactive lysate was transferred to a scintillation vial containing 5 mL of Ultima Gold liquid scintillation fluid and analyzed using a liquid Scintillation counter.

lipoprotein lipase (LPL) = target: T2, lipoprotein lipase (LPL) (Bos taurus, UniProt P11151); assay: Lipoprotein lipase (LPL) binding to adipocytes; format: cell-based, Bovine; conditions: exogenous heparin 100 μg/ml
T2 construct: gift of Gunilla Olivecrona, Umea University
T2 sequence (P11151 29-478): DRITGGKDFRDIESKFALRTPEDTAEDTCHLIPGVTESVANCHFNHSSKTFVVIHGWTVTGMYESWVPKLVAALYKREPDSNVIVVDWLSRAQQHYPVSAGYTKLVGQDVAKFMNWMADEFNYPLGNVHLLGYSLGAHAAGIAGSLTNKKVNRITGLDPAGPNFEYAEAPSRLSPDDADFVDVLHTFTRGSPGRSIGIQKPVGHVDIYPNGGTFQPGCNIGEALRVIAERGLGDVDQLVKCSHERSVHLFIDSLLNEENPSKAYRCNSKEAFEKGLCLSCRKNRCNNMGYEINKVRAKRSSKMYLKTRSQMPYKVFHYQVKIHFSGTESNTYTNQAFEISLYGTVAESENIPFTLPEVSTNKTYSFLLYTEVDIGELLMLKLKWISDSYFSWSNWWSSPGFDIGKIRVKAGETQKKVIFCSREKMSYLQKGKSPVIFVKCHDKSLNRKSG
Procedure: Bovine LPL generously provided by Gunilla Olivecrona (Department of Biomedical Sciences, Umea University, Umea Sweden)^42. Enzyme activity was determined using ^3H radiolabeled substrate as previously described^43. Molar ratio of biotin to LPL was determined in a HABA displacement assay (Pierce Biotin Quantitation Kit).
LPL binding assays were performed similar to as previously described. Cells were harvested using Accutase cell detachment solution (Millipore) and washed twice with PBS. Cells were incubated for 15 min at 37° C. in serum free media in the absence or presence of 5 mU/ml each of recombinant heparin lyases 1, 11, and 111. Treated and untreated cells were washed twice with PBS, chilled on ice for 20 min and incubated with 50 nM biotinylated LPL in 1% BSA supplemented PBS at 4° C. for 1 hour. Following the incubation, cells were washed twice in ice-cold PBS and incubated with 0.4 μg/mL Phycoerythrin-Cy5 conjugated Streptavidin in 1% BSA supplemented PBS at 4° C. A set of cells was exposed only to Phycoerythrin-Cy5 conjugated Streptavidin and was used as background control. Cells were washed twice with PBS and analyzed by flow cytometry.

WT adipocytes [3] = assay: [9,10-3H(N)]-Palmitate (FFA) uptake in adipocytes; format: cell-based, mouse; conditions: chemical inhibition of HS (heparin 100 μg/ml)
WT adipocytes [4] = assay: Glucose and lactate in spent media (YSI), adipocytes differentiated with heparin; format: cell-based, mouse; conditions: heparin 100 μg/ml during differentiation; spent media day 6
Procedure: Cells were seeded on a 24-well plate at a density of 30,000 cells/cm^2. Cells were allowed to grow to confluence for 48 hours. At this point (Day 0), the media were removed, cells were washed with PBS, and differentiation media with or without heparin (100 μg/ml) were added. Differentiation media consisted of 0.1 μM dexamethasone, 450 μM 3-isobutyl-1-methylxanthine, 2 μM insulin, and 1 μM rosiglitazone in DMEM supplemented with 10% FBS. On Day 3 of differentiation, cells were washed with PBS and treated with insulin media, which consisted of 2 μM insulin, and 1 μM rosiglitazone in DMEM with 10% FBS. The cellular cholesterol and triglyceride content was determined after lysing cells in 0.1M NaOH. Total plasma cholesterol and plasma triglyceride levels (Sekisui Diagnostics) and protein levels (BCA protein assay) were determined using commercially available kits.
MEFs are differentiated to day 6 into adipocytes in a 24 well plate, and on day six (6) 500 μL of media is collected from each well in an Eppendorf tube and immediately frozen in liquid nitrogen. […] Then, the filtrate is analyzed using a YSl 2900, where the sample is loaded into two wells of a 96 well plate, 200 μL media per well. The samples are then analyzed for lactate and glucose concentration.

Sequence of Wnt10b (O00744 29-389, species assumed): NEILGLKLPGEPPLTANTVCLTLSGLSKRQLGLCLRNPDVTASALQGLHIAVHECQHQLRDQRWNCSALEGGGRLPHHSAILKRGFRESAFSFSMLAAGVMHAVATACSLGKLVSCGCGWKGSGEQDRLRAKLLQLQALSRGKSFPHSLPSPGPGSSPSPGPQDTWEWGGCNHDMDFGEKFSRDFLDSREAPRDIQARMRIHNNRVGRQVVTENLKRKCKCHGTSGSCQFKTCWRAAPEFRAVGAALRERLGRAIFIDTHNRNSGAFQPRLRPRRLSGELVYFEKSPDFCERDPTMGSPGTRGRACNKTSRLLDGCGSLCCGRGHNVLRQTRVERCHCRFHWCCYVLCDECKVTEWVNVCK

EC50 (Wnt10b) [nM]	EC50 (Wnt5a) [nM]	binding of lipoprotein lipase (LPL) (lipoprotein lipase (LPL))	Compound	toxicity to WT adipocytes (WT adipocytes [1]; 10 nM)	glucose clearance in differentiated adipocytes (WT adipocytes [1])	glucose clearance in differentiated adipocytes (Ndst1−/− adipocytes)	reduction of glucose uptake (WT adipocytes [1]; WT cells treated with exogenous heparin (100 μg/ml) during differentiation, basal) [%]	differential in glucose uptake versus WT after insulin stimulation (WT adipocytes [1]; WT cells with heparin, insulin stimulated) [%]	glucose uptake at day 6 (WT adipocytes [1]; heparin 100 μg/ml from start, cells treated up to day 3 and beyond)	glucose uptake, acute treatment of mature adipocytes (WT adipocytes [1]; heparin 100 μg/ml simultaneously with 3[H]-2-deoxy-glucose administration, WT and Ndst1−/−)	glucose uptake at day 6 (WT adipocytes [1]; heparin added after day 4 of differentiation)	glucose uptake potential relative to untreated WT adipocytes (WT adipocytes [1]; soluble heparin 100 μg/ml)	3[H]-2-deoxy-glucose uptake (Ndst1−/− adipocytes; Ndst1−/− MEFs treated 1 hour at 37° C. on day 0 to 3, differentiated adipocytes day 6)	effect of exogenous heparin on glucose uptake (Ndst1−/− adipocytes; Ndst1−/− cells treated with exogenous heparin)	glucose uptake [2]	FFA uptake (WT adipocytes [3])	glucose levels in the culture medium (WT adipocytes [4])	lactate production (WT adipocytes [4])
			Cc1cc(-c2ccc(CC(=O)Nc3ccc(-c4cccnc4)cc3)cc2)ccn1 [Wnt-C59]	toxic	no effect on cellular glucose clearance	enhanced glucose clearance capacity												
			Oc1nc(-c2ccc(C(F)(F)F)cc2)nc2c1CSCC2 [XAV-939]		enhanced glucose clearance	enhanced glucose clearance												
30.1	28.2	reduced binding	heparin				45	−44	significantly reduced glucose uptake	unaltered glucose uptake	can no longer impact glucose uptake	reduces glucose uptake potential	had no effect; also recorded: no effect on cellular glucose uptake	did not have an additive effect on glucose uptake	reduced glucose uptake	did not negatively affect FFA uptake	high glucose levels remaining	decreased lactate production
